Laboratory results reported in US10639251B2, “Method for inhibiting or masking fishy odours” (Symrise AG, priority 2015, dated 2020).

How the values were obtained:
MOR42-3 = target: T1, MOR42-3 (Mus musculus, UniProt E9PX47); experiment: Cre-luciferase reporter gene assay, concentration-response curve of azelaic acid on MOR42-3 (Dual-Glo Luciferase, transfected HANA3A cells); assay type: cell-based; conditions: agonist alone; murine olfactory receptor MOR42-3 recombinantly expressed in HANA3A cells with RTP1S, G-protein αolf, pGL4-luciferase and pRL-TK-Renilla reporters; 4 h at 37° C.; Hill fit; n=3 in duplicate; FIG. 4A left
T1 construct: CRE-luciferase readout normalized to Renilla
T1 sequence (E9PX47 1-334): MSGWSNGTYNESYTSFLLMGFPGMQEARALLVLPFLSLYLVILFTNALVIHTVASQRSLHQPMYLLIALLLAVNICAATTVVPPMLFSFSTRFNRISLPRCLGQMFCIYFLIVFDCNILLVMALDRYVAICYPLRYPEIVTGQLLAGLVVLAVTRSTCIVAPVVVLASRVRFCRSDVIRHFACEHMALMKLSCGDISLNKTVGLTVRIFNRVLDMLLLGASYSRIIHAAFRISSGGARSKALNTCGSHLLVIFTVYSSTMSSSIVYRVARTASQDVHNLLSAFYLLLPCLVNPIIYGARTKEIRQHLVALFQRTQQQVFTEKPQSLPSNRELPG
Protocol: (§1) In order to identify suitable antagonist for TMA the protocol of Zhuang and Matsunami for measuring receptor activity with the Dual-Glo Luciferase Assay System (Promega) was adapted [see Nat. Protoc. 3(9), p. 1402-1413 (2008)]. HANA3A cells were maintained under standard conditions in DMEM supplemented with 10% FBS and 100 units/ml penicillin and streptomycin at 37° C. Cells (approximately 15,000 cells/well) were plated on poly-D-lysine-coated 96-well plates (NUNC) and transfected after 24 h with the FuGENE® HD (Promega) transfection reagent according to the manufacturer's protocol. […] Expression rates of Cre-luciferase were monitored by luminescent enzymatic reactivity. Thus, luminescence signals correlate with receptor activation. […]
(§2) For statistical analysis of Cre-luciferase assay data, two-tailed unpaired Student's t-test. […] Sensory data was analyzed using non-parametric statistical tests. The overall difference between the group thresholds was determined by a Kruskal-Wallis test, followed by a Dunn post-hoc test for the respective pairwise comparisons.
(§3) Another experiment was directed to figure out whether the Timberol® block is exclusively mediated by hTAAR5. […] Then the impact of Timberol® on MOR42-3- and hOR51E1-mediated responses to the respective agonists was tested with concentrations below and above the calculated EC50 values. […]

panelists = experiment: Olfactory detection threshold of TMA, 3-alternative forced-choice, ISO 13301; assay type: in vivo, human; conditions: for olfactory detection threshold of TMA: buffered aqueous solution pH 9
Protocol: In addition, olfactory detection thresholds were assessed in aqueous solutions using a best estimate threshold approach as described in ISO 13301. In brief, samples containing different concentrations of analyte were presented in ascending order in a 3-alternative forced-choice design. Each concentration set consisted of three samples with one deviating sample containing a defined amount of trimethylamine. Samples were presented in amber vials (30 ml) coded with three digits and filled with 10 ml of solution, and panelists were required to designate the sample that differed from the others.
Thresholds of TMA were measured in buffered aqueous solution i) without additive ii) with 1% (m/m) Timberol® and iii) with 0.1% Mugetanol (isointense to 1% Timberol®). These experiments were performed separately on different days with the same panelists. In the case of testing in the presence of fragrance components (Timberol® or Mugetanol), all three samples of a given concentration set contained the same amount of fragrance components and differed only in the presence/absence of TMA. In each session, a total of 10 concentration sets ranging from […] to 1.00×10^−5% (m/m) TMA were evaluated. The concentration doubled in each step.
The aqueous solutions were buffered with TRIS (50 mM), and the pH was adjusted to 9 to have approximately 13% of the TMA in a deprotonated and thus volatile form. Furthermore, an odorless emulsifier was added to a final concentration of 3% (m/m) to dissolve Timberol®.
In a second step, the influence of Timberol® on the perception of TMA was investigated using a psychophysical approach. Therefore the detection thresholds of TMA alone and in the presence of suprathreshold concentrations of Timberol® were tested. Threshold measurements were performed in a 3-alternative forced-choice design according to ISO 13301. A total of 10 concentrations (binary dilution steps) ranging from […] to 1.00×10^−5% (m/m) TMA were examined.

hTAAR5 [1] = target: T2, hTAAR5 (Homo sapiens, UniProt O14804); conditions: agonist; cited from earlier work
T2 construct: expressed in transfected cells; host or cells: HANA3A cells
T2 sequence (O14804 1-337): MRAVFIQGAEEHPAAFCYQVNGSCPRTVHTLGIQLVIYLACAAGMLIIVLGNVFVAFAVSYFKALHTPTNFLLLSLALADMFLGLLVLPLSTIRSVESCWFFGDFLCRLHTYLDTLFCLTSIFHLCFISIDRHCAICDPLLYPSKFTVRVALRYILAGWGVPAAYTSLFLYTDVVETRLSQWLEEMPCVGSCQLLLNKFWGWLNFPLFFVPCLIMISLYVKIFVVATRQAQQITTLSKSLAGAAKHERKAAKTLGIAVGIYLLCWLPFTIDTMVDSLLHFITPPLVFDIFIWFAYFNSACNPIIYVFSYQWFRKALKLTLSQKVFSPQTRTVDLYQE

humans = conditions: in vivo; cited from earlier work
hTAAR5 [2] = target: T2, hTAAR5; experiment: Cre-luciferase reporter gene assay, hTAAR5-mediated responses to TMA in transfected HANA3A cells; assay type: cell-based; conditions: TMA 300 μM, putative antagonist 100 μM
Protocol: In order to identify suitable antagonist for TMA the protocol of Zhuang and Matsunami for measuring receptor activity with the Dual-Glo Luciferase Assay System (Promega) was adapted [see Nat. Protoc. 3(9), p. 1402-1413 (2008)]. HANA3A cells were maintained under standard conditions in DMEM supplemented with 10% FBS and 100 units/ml penicillin and streptomycin at 37° C. Cells (approximately 15,000 cells/well) were plated on poly-D-lysine-coated 96-well plates (NUNC) and transfected after 24 h with the FuGENE® HD (Promega) transfection reagent according to the manufacturer's protocol. In a 96-well plate, we placed 18 μl transfection reagent, 1-5 μg receptor plasmid, 2 μg pGL4-luciferase reporter, 1 μg pRL-TK-Renilla reporter, 0.5 μg G-protein αolf, 1 μg receptor transport protein (RTP1S) and 1 μg M3 muscarinic acetylcholine receptor (for hOR51E1) to ensure cell surface expression. Cells were stimulated 24 h after transfection for 4 h at 37° C. with test substances diluted in CD 293 medium (1×) (Life Technologies) with 2 mM L-glutamine (Life Technologies) added. After stimulation with test substances, recombinant hTAAR5 activation elevated cAMP and the subsequent expression of the cAMP-dependent reporter gene construct Cre-luciferase. Expression rates of Cre-luciferase were monitored by luminescent enzymatic reactivity. Thus, luminescence signals correlate with receptor activation. The Renilla luciferase reporter driven by a constitutively active TK-promoter (pRL-TK-Renilla) served as an internal control to determine cell viability and transfection efficiency. Firefly luciferase activity to the Renilla luciferase signal was normalized for all wells. The ratios of antagonistic stimulation were normalized to the ratios of agonist stimulation. Furthermore, mock-transfected cells were stimulated to exclude unspecific responses to the tested substances.
To identify blocker substances for hTAAR5-mediated responses to TMA, the Cre-luciferase reporter gene assay was used. Human TAAR5-transfected HANA3A cells were stimulated with a mix of the agonist TMA (300 μM) and 100 μM of a potential blocker substance (FIG. 1).
For more detailed information concerning the type of antagonism (competitive vs. non-competitive) in the following experiments, the pharmacological profile of Timberol® was characterized. To test the concentration dependency of the Timberol® block, a concentration-inhibition curve (FIG. 2a) was measured. The blocking effect was increased with increasing concentrations of Timberol® and decreased with increasing concentrations of the agonist TMA. The latter was reflected by a significant concentration-inhibition curve shift.

hOR51E1 = target: T3, hOR51E1 (Homo sapiens, UniProt Q8TCB6); experiment: Cre-luciferase reporter gene assay, concentration-response curve of nonanoic acid on hOR51E1 (Dual-Glo Luciferase, transfected HANA3A cells); assay type: cell-based; design: expressed in transfected cells; host or cells: HANA3A; conditions: agonist alone; human olfactory receptor hOR51E1 recombinantly expressed in HANA3A cells with RTP1S, G-protein αolf, M3 muscarinic acetylcholine receptor, pGL4-luciferase and pRL-TK-Renilla reporters; 4 h at 37° C.; Hill fit; n=3 in duplicate; FIG. 4B left
T3 sequence (Q8TCB6 1-318): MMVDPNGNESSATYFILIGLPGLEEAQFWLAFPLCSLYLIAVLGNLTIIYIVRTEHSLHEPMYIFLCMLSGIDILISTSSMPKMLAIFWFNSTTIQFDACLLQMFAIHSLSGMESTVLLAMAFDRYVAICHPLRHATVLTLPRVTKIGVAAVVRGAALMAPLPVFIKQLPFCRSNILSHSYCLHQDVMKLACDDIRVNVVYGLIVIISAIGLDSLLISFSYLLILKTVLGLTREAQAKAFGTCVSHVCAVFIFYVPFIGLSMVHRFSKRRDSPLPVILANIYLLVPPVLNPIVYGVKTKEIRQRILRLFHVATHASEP
Protocol: as §1, §2, §3

## O=C(O)CCCCCCCC(=O)O [Azelaic acid, azelaic acid]
MOR42-3
  EC50: 2.67 ± 0.47 µM

## CN(C)C [TMA, trimethylamine, reference compound]
panelists; TMA alone
  olfactory detection threshold of TMA: 2.0×10^−7 % (m/m)
panelists; in the presence of Timberol (1% m/m)
  olfactory detection threshold of TMA: 1.0×10^−6 % (m/m)
hTAAR5 [1]
  activation of hTAAR5: specifically activated
humans
  detection threshold in humans: 0.00047 ppm

## CC(C)C1CCC(C(C)O)CC1 (stereo not shown) [Mugetanol, reference compound]
hTAAR5 [2]
  reduction / inhibition of hTAAR5-mediated TMA responses: does not inhibit
panelists; 1% Timberol or 0.1% Mugetanol (isointense)
  influence of additive on TMA detection threshold / perception: does not influence significantly

## CCN(C)C [DMEA, dimethylethylamine]
hTAAR5 [1]
  activation of hTAAR5: less efficacy and potency

## CCCCCCCCC(=O)O [Nonanoic acid, nonanoic acid]
hOR51E1
  EC50: 103 ± 23.1 µM

## CN [methylamine]
humans
  detection threshold in humans: 180 ppm
